Data reported in EP2353599A1, “8-hydroxyquinolines as inhibitors of cathepsin B” (University of Ljubljana, priority 2010, dated 2011).

Tested on: MCF-10A neoT cells
Experiment: Three-dimensional in vitro invasion model based on spheroids
Format: cell-based
Details: 10 µM, Matrigel
Protocol: The ability of 5-nitro-8-hydroxyquinoline to inhibit tumour cell invasion was also tested in a three-dimensional in vitro invasion model based on spheroids. Multicellular tumour spheroids were prepared according to hanging drop method (Kelm JM, Timmins NE, Brown CJ, Fussenegger M, Nielsen LK: Method for generation of homogeneous multicellular tumour spheroids applicable to a wide variety of cell types. Biotechnol Bioeng 2003, 83:173-80.). Drops (20 µl) of MCF-10A neoT cell suspension ([…]) were placed onto the lids of 10 cm dishes which were inverted over dishes containing 10 ml of PBS. Upon inversion of the tray the cells accumulated at the free liquid-air interface in this way forming spheroids after sufficient sedimentation time, in our case 6 days. Wells of a 24-well plate were filled with 400 µl of Matrigel (5mg/ml) containing the 5-nitro-8-hydroxyquinoline at the final concentration of 10 µM. After 15 min incubation at 37 °C 1 ml of medium with the test compound (10 µM) was placed on top of Matrigel. Spheroids were then carefully plated into the wells and incubated at 37 °C in a humidified atmosphere containing 5 % CO2. Images of spheroids were obtained using an Olympus IX 81 motorized inverted microscope and CellR software.

**Q.** Which “inhibition of tumour invasion in three-dimensional spheroid model” value does the source give for `O=[N+]([O-])c1ccc(O)c2ncccc12` [Compound 1, 5-nitro-8-hydroxyquinoline] here?
**A.** completely abrogated the invasive activity at the edge of the spheroid
